Measurements published in US20140303092A1 (CHIMERIX, INC., priority 2011, published 2014).

Experiment: Study HDP-CDV-201: safety and tolerability (adverse events, laboratory abnormalities, discontinuations)
Format: in vivo, human (adult allogeneic HSCT recipients)
Conditions: for Subjects with Neutrophils <0.5 GI/L / Subjects with Neutrophils <1.0-0.5 GI/L / Subjects with Neutrophils <1.5-1 GI/L / Subjects with Neutrophils <LLN-1.5 GI/L / Subjects with Platelets <25 GI/L / Subjects with Platelets <50-25 GI/L / Subjects with Platelets <75-50 GI/L / Subjects with Platelets <LLN-75 GI/L / Subjects with Serum Creatinine >1 × ULN-[…] ULN / Subjects with Serum Creatinine >3 × ULN-6 × ULN / Subjects with Serum Creatinine >6 × ULN / Subjects with Serum Creatinine >[…] ULN-3 × ULN / Subjects with WBC <1 GI/L / Subjects with WBC <2-1 GI/L / Subjects with WBC <3-2 GI/L / Subjects with WBC <LLN-3 GI/L / Subjects with Hemoglobin <6.5 g/dL / Subjects with Hemoglobin <8-6.5 g/dL / Subjects with Hemoglobin <10-8 g/dL / Subjects with Hemoglobin <LLN-10 g/dL: any time during therapy; for Subjects Receiving Aldesleukin / Subjects Receiving Blood and Related Products / Subjects Receiving Blood, Whole / Subjects Receiving Filgrastim / Subjects Receiving Granulocyte Colony Stimulating Factor / Subjects Receiving Pegfilgrastim / Subjects Receiving Platelets / Subjects Receiving Red Blood Cells / Subjects Receiving Red Blood Cells, Concentrated / Subjects Receiving Sargramostim: during the Treatment Period; for Cause of death: individual subjects who died
Protocol: Clinical Studies of HDP-CDV were performed and described in detail in the following Examples. For example, HDP-CDV-201 is a placebo-controlled, dose-escalating trial in HSCT CMV (R+) recipients, evaluating the ability of HDP-CDV to prevent or control CMV infection was carried out. Five cohorts were established in which participants or subjects received either placebo or the HDP-CDV orally, in doses ranging from 40 mg weekly (QW) to 200 mg twice weekly (BIW). Subjects who were post-HSCT were enrolled at the time of engraftment and randomized to HDP-CDV or placebo (3 to 1 ratio) and received blinded therapy until approximately 100 day post-transplantation. HDP-CDV doses were 40 mg QW, 100 mg QW, 200 mg QW, 200 mg BIW and 100 mg BIW. Escalation to the next dose was decided by the data monitoring committee after review of the safety data from the previous Cohort. Subjects who developed CMV disease or CMV infection requiring pre-emptive therapy with local standard of care were discontinued from blinded therapy and followed for 4 weeks. Subjects who completed treatment with blinded therapy were followed for 8 weeks post-therapy.
Data from Study HDP-CDV-201 also provided characterization of the safety and tolerability profile of HDP-CDV when administered for the prevention or control of CMV infection in high risk (R^+) post-HSCT adult subjects.
The Safety population (SAFETY) included all randomized subjects who took at least one dose of study treatment. This population was used to summarize safety outcomes based on the treatment actually received, in cases where a subject was treated contrary to the randomization schedule.
The safety and tolerability profile of HDP-CDV, including subject demographics and Baseline characteristics; the AE profile; and laboratory abnormalities of interest were analyzed in the cohorts followed in this investigation.
Subjects completing the treatment period received a full course of study medication; those completing the entire study attended visits through 8 weeks of follow up. Subjects who discontinued treatment may have done so for protocol specified reasons (e.g. development of clinically significant CMV infection requiring preemptive treatment with excluded anti-CMV medications) or for other reasons (e.g., withdrawal, adverse events, loss to follow-up). The disposition of subjects in Study HDP-CDV-201 during the double-blind, placebo-controlled treatment period (through Week 11) is listed by dosing Cohort in TABLE 23.
Adverse events were examined by severity to ensure that all safety signals were identified in this study population. Because of the frequency of events in HSCT recipients, particular attention was given to evaluation of Grade 3 […], 4 (severe), and 5 (fatal) adverse events.
Only those preferred terms for which at least one Grade 3 or higher event was experienced in any treatment group are listed. Cytomegalovirus-related AEs are excluded from this analysis.
HDP-CDV is a lipid conjugate of CDV. Because CDV is known to have adverse effects on renal function and bone marrow, decreased GFR and persistent neutropenia were identified as AEs of special interest. Key renal and hematological (TABLE 30) laboratory parameters were measured and listed below by Study HDP-CDV-201 treatment groups. TABLE 30 includes abnormal levels of serum creatinine, neutrophils, platelets, WBCs, and hemoglobin and includes data at Screening and during the treatment period.
A common metric for unit based dosing of medications is by weight (mg/kg). When the distribution of weights was examined for all subjects participating in the study, the median was 78 kg and the lower 25th percentile weight was approximately 65 kg, which translates to a cut-off of ˜3 mg/kg for a 200 mg total weekly dose. Based upon this approach, a cut-off of 3 mg/kg was used to assess the frequency of diarrhea and associated GI AEs reported for the subjects in Cohorts 3 or 4a (TABLE 40).

SMILES: CCCCCCCCCCCCCCCCOCCCOP(=O)(O)COC(CO)Cn1ccc(N)nc1=O (stereo not shown) [HDP-CDV]
- Subjects with Neutrophils <0.5 GI/L (100 mg QW): 3 (11.1%)
- Subjects with Neutrophils <1.0-0.5 GI/L (100 mg QW): 2 (7.4%)
- Subjects with Neutrophils <1.5-1 GI/L (100 mg QW): 9 (33.3%)
- Subjects with Neutrophils <LLN-1.5 GI/L (100 mg QW): 1 (3.7%)
- Subjects with Platelets <25 GI/L (100 mg QW): 4 (14.8%)
- Subjects with Platelets <50-25 GI/L (100 mg QW): 6 (22.2%)
- Subjects with Platelets <75-50 GI/L (100 mg QW): 6 (22.2%)
- Subjects with Platelets <LLN-75 GI/L (100 mg QW): 7 (25.9%)
- Subjects with Serum Creatinine >1 × ULN-[…] ULN (100 mg QW): 16 (59.3%)
- Subjects with Serum Creatinine >3 × ULN-6 × ULN (100 mg QW): 0
- Subjects with Serum Creatinine >6 × ULN (100 mg QW): 0
- Subjects with Serum Creatinine >[…] ULN-3 × ULN (100 mg QW): 5 (18.5%)
- Subjects with WBC <1 GI/L (100 mg QW): 3 (11.1%)
- Subjects with WBC <2-1 GI/L (100 mg QW): 4 (14.8%)
- Subjects with WBC <3-2 GI/L (100 mg QW): 6 (22.2%)
- Subjects with WBC <LLN-3 GI/L (100 mg QW): 4 (14.8%)
- Subjects with Hemoglobin <6.5 g/dL (200 mg BIW): 0
- Subjects with Hemoglobin <8-6.5 g/dL (200 mg BIW): 2 (7.1%)
- Subjects with Hemoglobin <10-8 g/dL (200 mg BIW): 12 (42.9%)
- Subjects with Hemoglobin <LLN-10 g/dL (200 mg BIW): 12 (42.9%)
- Subjects with Neutrophils <0.5 GI/L (200 mg BIW): 0
- Subjects with Neutrophils <1.0-0.5 GI/L (200 mg BIW): 4 (14.3%)
- Subjects with Neutrophils <1.5-1 GI/L (200 mg BIW): 7 (25.0%)
- Subjects with Neutrophils <LLN-1.5 GI/L (200 mg BIW): 3 (10.7%)
- Subjects with Platelets <25 GI/L (200 mg BIW): 8 (28.6%)
- Subjects with Platelets <50-25 GI/L (200 mg BIW): 8 (28.6%)
- Subjects with Platelets <75-50 GI/L (200 mg BIW): 2 (7.1%)
- Subjects with Platelets <LLN-75 GI/L (200 mg BIW): 6 (21.4%)
- Subjects with Serum Creatinine >1 × ULN-[…] ULN (200 mg BIW): 11 (37.9%)
- Subjects with Serum Creatinine >3 × ULN-6 × ULN (200 mg BIW): 0
- Subjects with Serum Creatinine >6 × ULN (200 mg BIW): 0
- Subjects with Serum Creatinine >[…] ULN-3 × ULN (200 mg BIW): 1 (3.4%)
- Subjects with WBC <1 GI/L (200 mg BIW): 2 (7.1%)
- Subjects with WBC <2-1 GI/L (200 mg BIW): 5 (17.9%)
- Subjects with WBC <3-2 GI/L (200 mg BIW): 9 (32.1%)
- Subjects with WBC <LLN-3 GI/L (200 mg BIW): 3 (10.7%)
- Subjects with Hemoglobin <6.5 g/dL (200 mg QW): 0
- Subjects with Hemoglobin <8-6.5 g/dL (200 mg QW): 5 (13.2%)
- Subjects with Hemoglobin <10-8 g/dL (200 mg QW): 19 (50.0%)
- Subjects with Hemoglobin <LLN-10 g/dL (200 mg QW): 13 (34.2%)
- Subjects with Neutrophils <0.5 GI/L (200 mg QW): 2 (5.3%)
- Subjects with Neutrophils <1.0-0.5 GI/L (200 mg QW): 7 (18.4%)
- Subjects with Neutrophils <1.5-1 GI/L (200 mg QW): 11 (28.9%)
- Subjects with Neutrophils <LLN-1.5 GI/L (200 mg QW): 1 (2.6%)
- Subjects with Platelets <25 GI/L (200 mg QW): 7 (18.4%)
- Subjects with Platelets <50-25 GI/L (200 mg QW): 13 (34.2%)
- Subjects with Platelets <75-50 GI/L (200 mg QW): 7 (18.4%)
- Subjects with Platelets <LLN-75 GI/L (200 mg QW): 7 (18.4%)
- Subjects with Serum Creatinine >1 × ULN-[…] ULN (200 mg QW): 16 (42.1%)
- Subjects with Serum Creatinine >3 × ULN-6 × ULN (200 mg QW): 0
- Subjects with Serum Creatinine >6 × ULN (200 mg QW): 0
- Subjects with Serum Creatinine >[…] ULN-3 × ULN (200 mg QW): 2 (5.3%)
- Subjects with WBC <1 GI/L (200 mg QW): 1 (2.6%)
- Subjects with WBC <2-1 GI/L (200 mg QW): 13 (34.2%)
- Subjects with WBC <3-2 GI/L (200 mg QW): 7 (18.4%)
- Subjects with WBC <LLN-3 GI/L (200 mg QW): 6 (15.8%)
- drug induced liver injury (DILI) (course of the study): No case of drug induced liver injury (DILI) clearly attributable to HDP-CDV
- Subjects Receiving Aldesleukin (40 mg QW): 0
- Subjects Receiving Blood and Related Products (40 mg QW): 1 (4.0%)
- Subjects Receiving Blood, Whole (40 mg QW): 0
- Subjects Receiving Filgrastim (40 mg QW): 4 (16.0%)
- Subjects Receiving Granulocyte Colony Stimulating Factor (40 mg QW): 0
- Subjects Receiving Pegfilgrastim (40 mg QW): 0
- Subjects Receiving Platelets (40 mg QW): 5 (20.0%)
- Subjects Receiving Red Blood Cells (40 mg QW): 0
- Subjects Receiving Red Blood Cells, Concentrated (40 mg QW): 2 (8.0%)
- Subjects Receiving Sargramostim (40 mg QW): 0
- Subjects Receiving Aldesleukin (100 mg BIW): 0
- Subjects Receiving Blood and Related Products (100 mg BIW): 0
- Subjects Receiving Blood, Whole (100 mg BIW): 0
- Subjects Receiving Filgrastim (100 mg BIW): 11 (22.0%)
- Subjects Receiving Granulocyte Colony Stimulating Factor (100 mg BIW): 0
- Subjects Receiving Pegfilgrastim (100 mg BIW): 2 (4.0%)
- Subjects Receiving Platelets (100 mg BIW): 6 (12.0%)
- Subjects Receiving Red Blood Cells (100 mg BIW): 3 (6.0%)
- Subjects Receiving Red Blood Cells, Concentrated (100 mg BIW): 6 (12.0%)
- Subjects Receiving Sargramostim (100 mg BIW): 0
- Subjects Receiving Aldesleukin (100 mg QW): 0
- Subjects Receiving Blood and Related Products (100 mg QW): 0
- Subjects Receiving Blood, Whole (100 mg QW): 1 (3.7%)
- Subjects Receiving Filgrastim (100 mg QW): 4 (14.8%)
- Subjects Receiving Granulocyte Colony Stimulating Factor (100 mg QW): 0
- Subjects Receiving Pegfilgrastim (100 mg QW): 0
- Subjects Receiving Platelets (100 mg QW): 3 (11.1%)
- Subjects Receiving Red Blood Cells (100 mg QW): 2 (7.4%)
- Subjects Receiving Red Blood Cells, Concentrated (100 mg QW): 3 (11.1%)
- Subjects Receiving Sargramostim (100 mg QW): 0
- Subjects Receiving Aldesleukin (200 mg BIW): 0
- Subjects Receiving Blood and Related Products (200 mg BIW): 0
- Subjects Receiving Blood, Whole (200 mg BIW): 0
- Subjects Receiving Filgrastim (200 mg BIW): 5 (16.7%)
- Subjects Receiving Granulocyte Colony Stimulating Factor (200 mg BIW): 1 (3.3%)
- Subjects Receiving Pegfilgrastim (200 mg BIW): 1 (3.3%)
- Subjects Receiving Platelets (200 mg BIW): 6 (20.0%)
- Subjects Receiving Red Blood Cells (200 mg BIW): 4 (13.3%)
- Subjects Receiving Red Blood Cells, Concentrated (200 mg BIW): 5 (16.7%)
- Subjects Receiving Sargramostim (200 mg BIW): 0
- Subjects Receiving Aldesleukin (200 mg QW): 0
- Subjects Receiving Blood and Related Products (200 mg QW): 0
- Subjects Receiving Blood, Whole (200 mg QW): 0
- Subjects Receiving Filgrastim (200 mg QW): 11 (28.2%)
- Subjects Receiving Granulocyte Colony Stimulating Factor (200 mg QW): 1 (2.6%)
- Subjects Receiving Pegfilgrastim (200 mg QW): 1 (2.6%)
- Subjects Receiving Platelets (200 mg QW): 6 (15.4%)
- Subjects Receiving Red Blood Cells (200 mg QW): 3 (7.7%)
- Subjects Receiving Red Blood Cells, Concentrated (200 mg QW): 6 (15.4%)
- Subjects Receiving Sargramostim (200 mg QW): 1 (2.6%)
- relation of deaths to study drug (entire study duration): None of the deaths were considered by the Investigators as related to HDP-CDV
- Cause of death (dose 100 mg BIW): Gut GVHD
- Cause of death (dose 200 mg BIW): GI bleed
- average increase in ALT from Baseline at time of maximum ALT increase (range across cohorts): 1.53 to 3.55 fold
- nephrotoxicity or myelotoxicity (regardless of dose and dosing frequency): no indication of nephrotoxicity or myelotoxicity
